Test results published in article PMC7725003, “Systematically Studying the Optimal Amino Acid Distribution Patterns of the Amphiphilic Structure by Using the Ultrashort Amphiphiles” (Frontiers in Microbiology, 2020).
Where no end group is shown, it is not given here.

What was measured:
[1] = system: B. subtilis 63501; type: cell-based, Bacillus subtilis; details: 63501, 24 h
Protocol: (§1) The antimicrobial activities of the peptides were measured using a method adapted from the National Committee for Clinical Laboratory Standards (NCCLS) with some modifications ([Chou et al., 2016]). The specific procedure for these assays has been previously described. In brief, the bacterial cells were grown to a mid-logarithmic phase and diluted in MHB to an ultimate concentration of 0.5–1 × 10^6 CFU mL^–1. Subsequently, the peptides were consecutively diluted in a 0.2% BSA solution and then added to a bacterial solution in a 96-well plate at identical volumes. After incubation for 24 h at 37°C, the MICs were determined to be the lowest peptide concentration that inhibited 95% of the bacterial growth by monitoring the absorbance at 492 nm using a microplate reader. Subsequently, 50 μL of each incubation mixture was further transferred to agar plates and incubated overnight. The minimum bactericidal concentrations (MBCs) were determined as the lowest peptide concentration that killed greater than 99.9% of the bacterial cells. Every assay was reproduced more than 3 times.

[2] = system: S. aureus 25923; type: cell-based, Staphylococcus aureus; details: 25923, 24 h
Protocol: as §1

[3] = system: S. aureus 29213; type: cell-based, Staphylococcus aureus; details: 29213, 24 h
Protocol: as §1

[4] = system: E. faecalis 29212; type: cell-based, Enterococcus faecalis; details: 29212, 24 h
Protocol: as §1

[5] = system: all of the tested bacterial strains; assay: Geometric mean of MICs, all tested bacterial strains; type: cell-based; details: for GM, All: geometric mean of MICs across all tested strains; for TI, All: therapeutic index TI = MHC/GM MIC
Excerpt: The antimicrobial activity of AMPs is the most decisive index for evaluating the clinical application of antimicrobial drugs. Many antimicrobial agents inhibit bacterial growth rather than kill the bacteria quickly, and long-term infections are pathogens that are not completely killed, which results in bacterial severe drug resistance. […] The geometric mean (GM) values of the MICs/MBCs of the two series across all of the tested bacterial strains are represented in Table 3, which depicts the average bacteriostatic/bactericidal level of a peptide.
as §1

[6] = system: S. typhimurium 7731; type: cell-based, Salmonella typhimurium; details: 7731, 24 h
Protocol: as §1

[7] = system: S. typhimurium 14028; type: cell-based, Salmonella typhimurium; details: 14028, 24 h
Protocol: as §1

[8] = system: MRSA 43300; type: cell-based, methicillin-resistant S. aureus; details: 43300, 24 h
Protocol: as §1

[9] = system: P. aeruginosa 27853; type: cell-based, Pseudomonas aeruginosa; details: 27853, 24 h
Protocol: as §1

[10] = system: Listeria monocytogenes CGMCC 1.1075; type: cell-based; details: CGMCC 1.1075, 24 h
Protocol: as §1

[11] = system: S. epidermidis 12228; type: cell-based, Staphylococcus epidermidis; details: 12228, 24 h
Protocol: as §1

[12] = system: S. aureus 29213; assay: Salt sensitivity assay (MIC); type: cell-based, Staphylococcus aureus; details: for MIC, FeCl3: 4 μM FeCl3; for MIC, NH4Cl: 6 μM NH4Cl; for MIC, ZnCl2: 8 μM ZnCl2; for MIC, MgCl2: 1 mM MgCl2; for MIC, CaCl2: 2 mM CaCl2; for MIC, KCl: 4.5 mM KCl; for MIC, NaCl: 150 mM NaCl; for MIC, Control: no added salt, three independent assays
Protocol: as §1
(§2) The salt sensitivities of the peptides were determined. E. coli ATCC 25922 and S. aureus ATCC 29213 were incubated in the presence of various ultimate concentrations of physiological salts (150 mM NaCl, 4.5 mM KCl, 6 μM NH4Cl, 8 μM ZnCl2, 1 mM MgCl2, 2mM CaCl2, and 4 μM FeCl3) according to our previous protocol ([Yang et al., 2019]). These tests were performed under the MICs, and three independent assays were performed.

[13] = system: Gram-negative bacteria; details: for GM, Gram-negative bacteria: geometric mean of MICs (Table 3); for TI, Gram-negative bacteria: therapeutic index TI = MHC/GM MIC
Protocol: (§3) The antimicrobial activity of AMPs is the most decisive index for evaluating the clinical application of antimicrobial drugs.
as §1, with “The minimum bactericidal concentrations (MBCs) were determined as the lowest peptide concentration that killed greater than 99.9% of the bacterial cells.” left out

[14] = system: Gram-positive bacteria; details: for GM, Gram-positive bacteria: geometric mean of MICs (Table 3); for TI, Gram-positive bacteria: therapeutic index TI = MHC/GM MIC
Protocol: as §3
as §1, with “The minimum bactericidal concentrations (MBCs) were determined as the lowest peptide concentration that killed greater than 99.9% of the bacterial cells.” left out

[15] = system: E. coli ATCC 25922; assay: Salt sensitivity assay (MIC); type: cell-based, Escherichia coli; details: for MIC, FeCl3: 4 μM FeCl3; for MIC, NH4Cl: 6 μM NH4Cl; for MIC, ZnCl2: 8 μM ZnCl2; for MIC, MgCl2: 1 mM MgCl2; for MIC, CaCl2: 2 mM CaCl2; for MIC, KCl: 4.5 mM KCl; for MIC, NaCl: 150 mM NaCl; for MIC, Control: no added salt, three independent assays
Protocol: as §1, §2

[16] = system: S. pullorum 7913; type: cell-based, Salmonella pullorum; details: 7913, 24 h
Protocol: as §1

[17] = system: E. coli 25922; type: cell-based, Escherichia coli; details: 25922, 24 h
Protocol: as §1

[18] = system: E. coli O78; type: cell-based, Escherichia coli; details: O78, 24 h
Protocol: as §1

[19] = system: E. coli UB1005; type: cell-based, Escherichia coli; details: UB1005, 24 h
Protocol: as §1

RWWWWRRWR-NH2 [W10]
115.84: TI, Gram-positive bacteria [14]
8 µM: MBC [4] | MBC [6] | MIC [7] | MBC [9] | MIC, NH4Cl [15] | MIC, Control [15] | MIC [17] | MBC [18] | MIC [19]
16 µM: MBC [7] | MIC, MgCl2 [15] | MIC, CaCl2 [15] | MIC, KCl [15] | MIC [16] | MBC [17] | MBC [19]
32 µM: MIC, NaCl [15] | MBC [16]
3.67 µM: GM, All [5]
69.75: TI, All [5]
2 µM: MIC [1] | MIC [2] | MIC [3] | MIC [8] | MIC [10] | MIC [11] | MIC, MgCl2 [12] | MIC, CaCl2 [12] | MIC, KCl [12] | MIC, NaCl [12] | MIC, Control [12]
1 µM: MIC, FeCl3 [12] | MIC, NH4Cl [12] | MIC, ZnCl2 [12]
4 µM: MBC [1] | MBC [2] | MBC [3] | MIC [4] | MIC [6] | MBC [8] | MIC [9] | MBC [10] | MBC [11] | MIC, FeCl3 [15] | MIC, ZnCl2 [15] | MIC [18]
47.06: TI, Gram-negative bacteria [13]
5.44 µM: GM, Gram-negative bacteria [13]
2.21 µM: GM, Gram-positive bacteria [14]

RWRWRRWWW-NH2 [W9]
104.92: TI, Gram-positive bacteria [14]
4.67 µM: GM, Gram-negative bacteria [13]
16 µM: MBC [7] | MBC [9] | MIC, CaCl2 [15] | MIC, NaCl [15]
8 µM: MBC [4] | MBC [6] | MIC [7] | MIC [9] | MBC [10] | MIC, ZnCl2 [15] | MIC, MgCl2 [15] | MIC, KCl [15] | MBC [16] | MBC [17] | MBC [18] | MBC [19]
2 µM: MIC [1] | MIC [2] | MIC [3] | MIC [8] | MIC [11] | MIC, FeCl3 [12] | MIC, NH4Cl [12] | MIC, ZnCl2 [12] | MIC, MgCl2 [12] | MIC, KCl [12] | MIC, NaCl [12] | MIC, Control [12]
54.82: TI, Gram-negative bacteria [13]
4 µM: MBC [1] | MBC [2] | MBC [3] | MIC [4] | MIC [6] | MBC [8] | MIC [10] | MBC [11] | MIC, CaCl2 [12] | MIC, FeCl3 [15] | MIC, NH4Cl [15] | MIC, Control [15] | MIC [16] | MIC [17] | MIC [18] | MIC [19]
2.44 µM: GM, Gram-positive bacteria [14]
72.93: TI, All [5]
3.51 µM: GM, All [5]

RRWWWWRRW-NH2 [W7]
2.44 µM: GM, Gram-positive bacteria [14]
4 µM: MBC [2] | MIC [3] | MBC [8] | MIC [9] | MBC [10] | MBC [11] | MIC, NH4Cl [12] | MIC, ZnCl2 [12] | MIC, MgCl2 [12] | MIC, CaCl2 [12] | MIC, KCl [12] | MIC, NaCl [12] | MIC, Control [12] | MIC, NH4Cl [15] | MIC, ZnCl2 [15] | MIC, MgCl2 [15] | MIC, Control [15] | MIC [16] | MIC [17] | MIC [19]
1 µM: MIC [1]
4.00 µM: GM, All [5]
16 µM: MBC [4] | MIC [6] | MBC [7] | MBC [18]
104.92: TI, Gram-positive bacteria [14]
8 µM: MBC [3] | MIC [4] | MIC [7] | MIC, FeCl3 [12] | MIC, FeCl3 [15] | MIC, CaCl2 [15] | MIC, KCl [15] | MIC, NaCl [15] | MBC [16] | MBC [17] | MIC [18] | MBC [19]
43.54: TI, Gram-negative bacteria [13]
64.00: TI, All [5]
2 µM: MBC [1] | MIC [2] | MIC [8] | MIC [10] | MIC [11]
32 µM: MBC [6] | MBC [9]
5.88 µM: GM, Gram-negative bacteria [13]
